In patent publication US12123010B2, “Plants having increased tolerance to herbicides” (BASF SE, priority 2017, dated 2024):
Values joined by “and” are separate entries in the source; they are usually repeats but may differ in a detail not shown here. Equal values may be shown once.

Assays:
[1] = target: Wild Type PPO Enzyme (Amaranthus PPO2, SEQ ID NO: 1) (Amaranthus tuberculatus, UniProt Q0NZW9); assay: PPO enzyme assay (recombinant), wild type; assay type: biochemical
[2] = system: Variant PPO Enzyme R128A, F420V (Amaranthus PPO2); assay: biochemical; assay type: biochemical; settings: variant R128A, F420V vs wild type
[3] = system: Variant PPO Enzyme R128A, F420M (Amaranthus PPO2); assay type: biochemical; settings: variant R128A, F420M vs wild type
[4] = system: Variant PPO Enzyme L397Q, F420V (Amaranthus PPO2); assay type: biochemical; settings: variant L397Q, F420V vs wild type
[5] = system: Variant PPO Enzyme L397Q, F420M (Amaranthus PPO2); assay type: biochemical; settings: variant L397Q, F420M vs wild type
[6] = system: Variant PPO Enzyme L397Q (Amaranthus PPO2); assay type: biochemical; settings: variant L397Q vs wild type
[7] = system: Variant PPO Enzyme F420V (Amaranthus PPO2); assay type: biochemical; settings: variant F420V vs wild type
[8] = system: Variant PPO Enzyme F420M (Amaranthus PPO2); assay: biochemical; assay type: biochemical; settings: variant F420M vs wild type
[9] = system: Transgenic T2 Arabidopsis plants harboring PPO inhibitor tolerance trait; assay: Lab based germination assay in 48-well plates (Table i); assay type: in vivo, Arabidopsis thaliana; settings: in comparison to wild type plants
[10] = system: Transgenic T2 Arabidopsis plants and ARBTH WT MC24 non-transgenic; assay: Greenhouse post spray test, injury 14 DAT (Tables ii, iii); assay type: in vivo, Arabidopsis thaliana;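 further: value is percent injury to the sprayed plants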
[11] = system: Transgenic T2 or T3 Soybean plants harbouring PPO inhibitor tolerance trait and Jake non transgenic; assay: Soybean greenhouse post spray, injury score 7 DAT; settings: in vivo
Method: Soybean cv Jake is transformed as previously described by Siminszky et al., Phytochem Rev. 5:445-458 (2006). After regeneration, transformants are transplanted to soil in small pots, placed in growth chambers (16 hr day/8 hr night; 25° C. day/23° C. night; 65% relative humidity; 130-150 microE m-2 s-1) and subsequently tested for the presence of the T-DNA via Taqman analysis. After a few weeks, healthy, transgenic positive, single copy events are transplanted to larger pots and allowed to grow in the growth chamber. An optimal shoot for cutting is about 3-4 inches tall, with at least two nodes present. Each cutting is taken from the original transformant (mother plant) and dipped into rooting hormone powder (indole-3-butyric acid, IBA). The cutting is then placed in oasis wedges inside a bio-dome. The mother plant is taken to maturity in the greenhouse and harvested for seed. Wild type cuttings are also taken simultaneously to serve as negative controls. The cuttings are kept in the bio-dome for 5-7 days and then transplanted to 3 inch pots and then acclimated in the growth chamber for two more days. Subsequently, the cuttings are transferred to the greenhouse, acclimated for approximately 4 days prior to spray. […] Herbicide injury evaluations are taken at 2, 7, 14 and 21 days after treatment. […]

Chain of Wild Type PPO Enzyme (Amaranthus PPO2, SEQ ID NO: 1) (Q0NZW9 1-534): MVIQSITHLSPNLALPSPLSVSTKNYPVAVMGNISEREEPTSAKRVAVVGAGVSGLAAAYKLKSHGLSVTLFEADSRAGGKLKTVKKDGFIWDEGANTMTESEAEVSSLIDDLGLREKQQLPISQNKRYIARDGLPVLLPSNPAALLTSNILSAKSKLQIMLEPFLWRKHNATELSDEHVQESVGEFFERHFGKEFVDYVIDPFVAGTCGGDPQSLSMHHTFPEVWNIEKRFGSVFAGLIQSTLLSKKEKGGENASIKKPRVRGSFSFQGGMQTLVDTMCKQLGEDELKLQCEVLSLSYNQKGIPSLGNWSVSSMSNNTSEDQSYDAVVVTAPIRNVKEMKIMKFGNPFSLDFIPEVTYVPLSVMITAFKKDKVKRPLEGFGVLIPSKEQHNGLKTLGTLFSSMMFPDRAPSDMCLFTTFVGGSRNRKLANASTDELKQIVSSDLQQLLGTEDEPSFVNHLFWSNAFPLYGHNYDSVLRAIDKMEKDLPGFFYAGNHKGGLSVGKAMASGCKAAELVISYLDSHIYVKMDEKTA

Compound: CCOC(=O)COc1ncccc1Oc1cc(-n2c(=O)cc(C(F)(F)F)n(C)c2=O)c(F)cc1Cl [Uracilpyridine 1, ethyl 2-[[3-[2-chloro-4-fluoro-5-[3-methyl-2,6-dioxo-4-(trifluoromethyl)pyrimiclin-1-yl]phenoxy]-2-pyridyl]oxy]acetate]
- IC50 [1]: 0.177 nM
- Tolerance Factor (R/S) [2]: 915 and 1579
- Tolerance Factor (R/S) [3]: 347
- Tolerance Factor (R/S) [4]: 12739
- Tolerance Factor (R/S) [5]: 2418
- Tolerance Factor (R/S) [6]: 13
- Tolerance Factor (R/S) [7]: 374
- Tolerance Factor (R/S) [8]: 215 and 265
- Tolerance Factor ([9]; construct ARBTH_PPO1_S305L_Y426M (Arabidopsis thaliana)): 250
- Tolerance Factor ([9]; construct ARBTH_PPO1_WT (Arabidopsis thaliana)): 50
- injury (%) ([10]; Table ii, ALOMY_PPO2_R137L_F438V event F, 50 g ai/ha): 20%
- injury (%) ([10]; Table ii, ALOMY_PPO2_R137L_F438V event F, 100 g ai/ha): 33%
- injury (%) ([10]; Table ii, ALOMY_PPO2_R137L_F438V event F, 200 g ai/ha): 65%
- injury (%) ([10]; Table ii, ALOMY_PPO2_R137L_F438V event G, 50 g ai/ha): 5%
- injury (%) ([10]; Table ii, ALOMY_PPO2_R137L_F438V event G, 100 g ai/ha): 75%
- injury (%) ([10]; Table ii, ALOMY_PPO2_R137L_F438V event G, 200 g ai/ha): 28%
- injury (%) ([10]; Table ii, ALOMY_PPO2_TP_AMATU_PPO2_R128M_F420I event R, 50 g ai/ha): 60%
- injury (%) ([10]; Table ii, ALOMY_PPO2_TP_AMATU_PPO2_R128M_F420I event R, 100 g ai/ha): 92%
- injury (%) ([10]; Table ii, ALOMY_PPO2_TP_AMATU_PPO2_R128M_F420I event R, 200 g ai/ha): 84%
- injury (%) ([10]; Table ii, AMATU_PPO2_R128A_F420M event Q, 50 g ai/ha): 55%
- injury (%) ([10]; Table ii, AMATU_PPO2_R128A_F420M event Q, 100 g ai/ha): 60%
- injury (%) ([10]; Table ii, AMATU_PPO2_R128A_F420M event Q, 200 g ai/ha): 75%
- injury (%) ([10]; Table ii, AMATU_PPO2_R128M_F420I event K, 50 g ai/ha): 60%
- injury (%) ([10]; Table ii, AMATU_PPO2_R128M_F420I event K, 100 g ai/ha): 73%
- injury (%) ([10]; Table ii, AMATU_PPO2_R128M_F420I event K, 200 g ai/ha): 75%
- injury (%) ([10]; Table ii, AMATU_PPO2_TP_hemG event R, 50 g ai/ha): 60%
- injury (%) ([10]; Table ii, AMATU_PPO2_TP_hemG event R, 100 g ai/ha): 63%
- injury (%) ([10]; Table ii, AMATU_PPO2_TP_hemG event R, 200 g ai/ha): 53%
- injury (%) ([10]; Table ii, ARBTH WT MC24 non-transgenic, 50 g ai/ha + 1% MSO): 100%
- injury (%) ([10]; Table ii, ARBTH WT MC24 non-transgenic, 100 g ai/ha + 1% MSO): 100%
- injury (%) ([10]; Table ii, ARBTH WT MC24 non-transgenic, 200 g ai/ha + 1% MSO): 100%
- injury (%) ([10]; Table iii, ALOMY_PPO2_R137L_F438M (unnamed lines), 50 g ai/ha): 0%
- injury (%) ([10]; Table iii, AMATU_PPO2_L397Q_F420V (unnamed lines), 50 g ai/ha): 40% and 75%
- injury (%) ([10]; Table iii, AMATU_PPO2_L397Q_F420V (unnamed lines), 100 g ai/ha): 85% and 65%
- injury (%) ([10]; Table iii, AMATU_PPO2_R128A_F420I (unnamed lines), 50 g ai/ha): 60% and 70% and 75%
- injury (%) ([10]; Table iii, AMATU_PPO2_R128A_F420I (unnamed lines), 100 g ai/ha): 95% and 65% and 80% and 60%
- injury (%) ([10]; Table iii, AMATU_PPO2_R128A_F420L (unnamed lines), 100 g ai/ha): 60% and 90% and 95% and 80%
- injury (%) ([10]; Table iii, AMATU_PPO2_R128A_F420V (unnamed lines), 50 g ai/ha): 95% and 90% and 55% and 65%
- injury (%) ([10]; Table iii, AMATU_PPO2_R128A_F420V (unnamed lines), 100 g ai/ha): 80% and 95% and 98%
- injury (%) ([10]; Table iii, ARBTH WT MC 24 (non-transgenic), 50 g ai/ha + 1% MSO): 100%
- injury (%) ([10]; Table iii, ARBTH WT MC 24 (non-transgenic), 100 g ai/ha + 1% MSO): 100%
- injury (0-9) [11]: 3 and 2 and 4 and 0 (No Injury)
